Data set [1] deals with primary cultures of mature astrocytes. Nature of the data set: Customization of C1-MIM concentrations: relative gene expression (Gfap, Cd44) by rtPCR in mature astrocytes. Type of data set: cell-based, mouse. As to the method: Astrocytes were derived from cortical tissues postnatal or differentiated from dissociated neurospheres after a second or third passage, as described herein. For postnatal astrocytes, cortices were isolated from P4 mice pups to get single cells and were plated as described by Schildge et al.^51Confluent cultures were sorted with Anti-GLAST (ACSA-1) Microbead kit according to manufacturer instructions. For inducing differentiation from NSCs, single cells derived from neurospheres were exposed to astrocyte media. In both cases, cells were plated over pre-treated Poly-L-Lysine plates or Poly-D-Lysine glass-coverslips using Astrocyte Differentiation Medium (DMEM-F12, 10% heat-inactivated FBS, lx B27, and 1X Glutamax).
Cell cultures seeded on adherent conditions were kept on their respective differentiation media until they reach a mature phenotype (defined by the expression of markers specific to each cell type). When cultures reached around 80-90% confluence, the differentiation media was removed, cells were washed twice with PBS and the media was replaced with CI-MIM. The composition of C1-MIM includes up to 6 metabolites (details of the combinations used are specified in figure legends) including Methionine, Threonine, Glycine, Putrescine, Cysteine [5mM], and S-adenosylmethionine [0.05mM], which are dissolved in a base medium (BM) composed by DMEM-F12 plus Neurobasal [1:1], supplemented with 1X B27, 1X N2. […] In all cases, from the same batch of each cell culture, a control culture was also washed with PBS but maintained with their own differentiation media along all the time of the treatment. Cells in this schema were fed every other day. Cells were monitored daily to attest to the change in morphology. Cells were collected on the fifth day or earlier after starting the MIM treatment (indicated in each specific case in the figure legend) for further analyses, as indicated in the figure legends of each experimental approach. Viability of cultures at the time of collection was measured by trypan blue, and all cases above 85% viable cells were processed for downstream analyses.
Total RNA was isolated from cells grown on Petri dish at the indicated time points, using the RNeasy Plus Mini kit QIAGEN, according to the manufacturer's protocol, including a DNA-removal step with DNAseI. Amount and purity of RNA were assessed using a NanoDrop spectrophotometer (Nanodrop Technologies); at least 500 ng of total RNA was used to synthesize cDNA by reverse transcription, using Maxima™ H
Minus cDNA Synthesis Master Mix. 2.5-10 ng of cDNA was used in the following qPCR performed on a CFX384 thermal cycler (Bio-Rad) using the SsoAdvanced™ Universal SYBR® Green Supermix. Results were normalized to at 193 least one reference genes β-Actin, RPL38, GAPDH, Gus, CTCF, and Natl, specified per figure), selected for their highest stability among a pool of common housekeeping genes. Primers were designed by NCBI/Primer-BLAST primers designing tool (Table 1). Statistical analysis of the results was performed using the 2ACt method^s. Results were expressed relative to the expression values of the experimental control.
The cocktail customization was performed in primary cultures of mature astrocytes, between the second and the fourth passage. Those cells were maintained at least 8 days in culture before passaging. […] We tested individual metabolites at different concentrations in a serum-free medium (base media, BM). […]

For the next data set, the system named is astrocytes. Nature of the data set: Lethality of individual metabolites for astrocytes in serum-free base medium. Type of data set: cell-based, mouse. The note with it: millimolar (high) concentrations. As to the method: The cocktail customization was performed in primary cultures of mature astrocytes, between the second and the fourth passage. Those cells were maintained at least 8 days in culture before passaging. We corroborated the expression of Gfap before starting the experiment by immunocytochemistry (FIG. 1G). We tested individual metabolites at different concentrations in a serum-free medium (base media, BM). BM contained equivalent volumes of DMEM-F12 and Neurobasal, plus the supplements N2 and B27 at 1X. Notes about specific molecules added. S-adenosylmethionine (SAM) at millimolar concentrations was lethal for astrocytes, which is in line with the lower physiological concentrations usually found for this metabolite compared to others. Cysteine is high-sensitive to oxidation, which is manifested as white flake precipitation, a high-concentrated stock solution [2500mM] dissolved in ddH2O with pH slightly acid (5.5-6) was prepared to prevent this issue. We corroborated a pH always close to 7.4 in the cells maintained in vitro, before and after treating them with cocktails containing the diluted solution of cysteine.

“Also recorded” adds a separate entry of the source.

Take `C[C@@H](O)[C@H](N)C(=O)O` [threonine]: the Gfap expression result in data set [1] (separate metabolite at 1mM) is on record as “repressed”. On to `N[C@@H](CS)C(=O)O` [cysteine], for which, in data set [1] (individual metabolite, range of concentrations (0.025 to 10mM)), the Gfap expression entry is reported as “potentiates”. With `C[S+](CC[C@H](N)C(=O)[O-])C[C@H]1O[C@@H](n2cnc3c(N)ncnc32)[C@H](O)[C@@H]1O` (stereo partly shown) [S-adenosylmethionine], the “lethality / toxicity for astrocytes” value is “lethal; also recorded: toxic” with astrocytes and “lethal” in the data set on astrocytes (listed as SAM). As for `NCCCCN` [putrescine], the Gfap expression entry in data set [1] (separate metabolite at 1mM) is reported as “repressed”.

As for “FGF2: growth factor added to improve cell survival in serum-free medium [reference compound]”, the Gfap expression entry in data set [1] (20ng/mL) is recorded as “did not inhibit”; in data set [1] (concentrations lower than 20ng/mL), “potentiate”.

Values taken from patent publication US20230220354A1, “COMPOSITIONS AND METHODS FOR CONTROLLING CELLULAR IDENTITY” (King Abdullah University of Science and Technology, priority 2020, published 2023).
